Assay results taken from US10201510B2, “Compositions and methods for treatment of neurological symptoms associated with alcohol-withdrawal and for convulsive seizure” (Oregon Health & Science University, priority 2005, dated 2019).

Columns and labels:
[1] = target: T1, neuronal voltage-gated, L-type (Cav1.3) α1D subunit Ca^2+ channel (Rattus norvegicus, UniProt P27732); experiment: KCl-induced Ca^2+ signaling in fura-2 loaded PC12 cells; format: cell-based; settings: for activity on neuronal L-type Ca^2+ channels compared with all-trans farnesol: non-NGF PC12 cells, fura-2, FIG. 1 / FIG. 3
T1 construct: KCl-induced intracellular Ca^2+ signaling in non-NGF treated PC12 cells loaded with fura-2; endogenous in cells; host or cells: PC12 cells (non-NGF treated)
T1 sequence (P27732 whole entry): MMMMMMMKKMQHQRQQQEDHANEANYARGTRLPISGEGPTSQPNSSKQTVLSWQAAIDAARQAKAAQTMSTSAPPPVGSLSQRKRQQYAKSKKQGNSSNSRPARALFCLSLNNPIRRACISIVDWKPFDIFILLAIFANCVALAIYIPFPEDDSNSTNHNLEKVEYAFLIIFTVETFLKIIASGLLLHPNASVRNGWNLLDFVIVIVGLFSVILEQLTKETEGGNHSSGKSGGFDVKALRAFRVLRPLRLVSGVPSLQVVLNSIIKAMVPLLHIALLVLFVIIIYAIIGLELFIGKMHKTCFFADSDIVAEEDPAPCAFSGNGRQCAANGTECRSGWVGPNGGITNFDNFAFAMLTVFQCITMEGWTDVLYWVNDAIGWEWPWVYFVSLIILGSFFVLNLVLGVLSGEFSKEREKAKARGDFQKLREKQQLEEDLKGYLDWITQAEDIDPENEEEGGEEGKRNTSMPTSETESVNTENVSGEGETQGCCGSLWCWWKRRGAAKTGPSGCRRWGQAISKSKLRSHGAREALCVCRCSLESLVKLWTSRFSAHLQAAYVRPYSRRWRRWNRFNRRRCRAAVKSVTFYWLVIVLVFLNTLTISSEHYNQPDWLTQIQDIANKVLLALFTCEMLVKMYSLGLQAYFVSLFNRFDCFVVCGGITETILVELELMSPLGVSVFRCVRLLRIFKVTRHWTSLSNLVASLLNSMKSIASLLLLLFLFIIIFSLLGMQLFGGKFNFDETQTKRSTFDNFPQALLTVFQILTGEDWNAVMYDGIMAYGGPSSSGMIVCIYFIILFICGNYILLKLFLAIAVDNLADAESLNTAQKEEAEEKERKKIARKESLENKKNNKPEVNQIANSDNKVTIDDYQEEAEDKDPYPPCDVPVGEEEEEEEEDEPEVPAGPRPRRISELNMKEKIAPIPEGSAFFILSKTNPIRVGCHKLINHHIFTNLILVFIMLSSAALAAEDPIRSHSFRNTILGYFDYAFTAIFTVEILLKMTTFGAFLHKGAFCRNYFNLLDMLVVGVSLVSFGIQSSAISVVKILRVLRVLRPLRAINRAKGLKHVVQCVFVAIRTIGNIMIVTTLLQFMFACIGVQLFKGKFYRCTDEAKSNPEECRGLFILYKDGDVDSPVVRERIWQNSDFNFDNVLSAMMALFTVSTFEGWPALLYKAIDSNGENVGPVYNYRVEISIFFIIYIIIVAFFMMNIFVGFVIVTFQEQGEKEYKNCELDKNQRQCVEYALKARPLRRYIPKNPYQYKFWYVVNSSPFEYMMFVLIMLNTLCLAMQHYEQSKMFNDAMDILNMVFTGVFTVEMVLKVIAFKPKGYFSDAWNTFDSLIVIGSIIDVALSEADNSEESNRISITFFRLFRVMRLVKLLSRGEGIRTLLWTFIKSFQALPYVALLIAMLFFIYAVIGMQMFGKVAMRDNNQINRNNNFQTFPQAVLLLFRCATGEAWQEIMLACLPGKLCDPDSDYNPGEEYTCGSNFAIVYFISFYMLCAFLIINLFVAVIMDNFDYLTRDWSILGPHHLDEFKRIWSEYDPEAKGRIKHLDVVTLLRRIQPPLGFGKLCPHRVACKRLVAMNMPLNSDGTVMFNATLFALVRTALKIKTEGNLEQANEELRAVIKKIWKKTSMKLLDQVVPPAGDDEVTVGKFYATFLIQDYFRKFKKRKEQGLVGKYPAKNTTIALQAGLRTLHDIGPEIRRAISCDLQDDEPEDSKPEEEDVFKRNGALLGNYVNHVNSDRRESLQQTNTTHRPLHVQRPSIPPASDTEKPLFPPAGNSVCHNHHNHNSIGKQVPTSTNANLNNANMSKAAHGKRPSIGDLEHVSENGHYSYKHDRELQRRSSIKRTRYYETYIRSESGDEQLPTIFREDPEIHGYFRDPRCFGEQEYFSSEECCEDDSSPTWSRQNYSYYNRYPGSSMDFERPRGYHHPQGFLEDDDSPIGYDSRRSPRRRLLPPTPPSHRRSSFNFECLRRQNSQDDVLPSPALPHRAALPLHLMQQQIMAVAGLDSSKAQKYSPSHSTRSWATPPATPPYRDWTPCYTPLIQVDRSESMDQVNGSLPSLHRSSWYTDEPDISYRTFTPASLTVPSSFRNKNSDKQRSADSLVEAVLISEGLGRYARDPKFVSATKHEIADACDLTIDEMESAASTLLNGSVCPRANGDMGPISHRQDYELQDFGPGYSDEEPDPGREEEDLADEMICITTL
T1 sequence (P54290 25-944 partner limits assumed): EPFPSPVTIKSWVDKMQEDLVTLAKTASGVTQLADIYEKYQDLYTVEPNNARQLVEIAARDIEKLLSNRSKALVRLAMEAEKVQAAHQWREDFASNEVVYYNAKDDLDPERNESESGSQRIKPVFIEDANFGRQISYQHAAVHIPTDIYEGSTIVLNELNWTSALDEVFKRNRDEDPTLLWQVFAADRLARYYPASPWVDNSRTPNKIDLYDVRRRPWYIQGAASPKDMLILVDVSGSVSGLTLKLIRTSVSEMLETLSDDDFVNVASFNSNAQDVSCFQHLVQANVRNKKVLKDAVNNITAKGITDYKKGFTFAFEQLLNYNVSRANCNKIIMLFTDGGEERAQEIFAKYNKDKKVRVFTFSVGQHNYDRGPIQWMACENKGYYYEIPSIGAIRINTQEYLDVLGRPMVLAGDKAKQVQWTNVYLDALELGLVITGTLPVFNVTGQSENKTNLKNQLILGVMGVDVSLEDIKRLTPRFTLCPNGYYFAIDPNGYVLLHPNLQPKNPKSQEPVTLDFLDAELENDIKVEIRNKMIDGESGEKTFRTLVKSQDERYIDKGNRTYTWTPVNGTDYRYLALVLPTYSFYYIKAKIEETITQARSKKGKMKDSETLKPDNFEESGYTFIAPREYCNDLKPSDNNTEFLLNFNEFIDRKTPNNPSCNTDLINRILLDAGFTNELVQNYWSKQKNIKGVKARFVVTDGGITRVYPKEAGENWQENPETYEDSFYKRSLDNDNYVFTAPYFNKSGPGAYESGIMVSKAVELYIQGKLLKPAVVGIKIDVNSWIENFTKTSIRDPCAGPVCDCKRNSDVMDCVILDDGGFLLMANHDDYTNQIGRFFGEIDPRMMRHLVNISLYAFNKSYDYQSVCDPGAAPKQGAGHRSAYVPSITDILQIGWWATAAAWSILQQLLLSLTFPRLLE
T1 sequence (P54290 945-1091 partner limits assumed): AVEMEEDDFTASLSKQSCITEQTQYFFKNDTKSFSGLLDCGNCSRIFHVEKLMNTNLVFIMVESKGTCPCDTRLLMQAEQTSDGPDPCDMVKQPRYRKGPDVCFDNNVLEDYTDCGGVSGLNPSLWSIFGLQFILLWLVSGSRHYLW
Text: According to particular aspects of the present invention, the alcohol group is essential for activity. Additionally, the activity of farnesol metabolites on neuronal voltage-gated L-type Ca^2+ channels was investigated. […] The Ca^2+ channel activity is expressed as % inhibition of KCl-induced intracellular Ca^2+ signaling in non-NGF differentiated PC12 cells loaded with fura-2 (see Materials and Methods under Example 2). The assayed molecules are: FPP—farnesyl pyrophosphate; FOH—all-trans farnesol; FCHO—all-trans farnesal; and FCOOH—all-trans farnesoic acid (prepared by Dr. McDougal).
(§1) To identify compounds with enhanced L-type Ca^2+ channel blocker activity, several compounds were either purchased or synthesized, and then tested for their ability to inhibit: (1) KCl-induced contraction in isolated arteries; (2) KCl-induced Ca^2+ signaling in fura-2 loaded arteries; and (3) KCl-induced Ca^2+ signaling in fura-2 loaded PC12 cells, all using art-recognized methods established in the applicants' laboratories (Roullet, 1993, 1994, 1995, 1997; De Lima, 1999). Arteries express smooth muscle voltage-gated, L-type (Cav1.2 or α1C subunit) Ca^2+ channels, whereas PC12 cells constitutively express the neuronal voltage-gated, L-type (Cav1.3) α1D subunit (Ertel, 2000).
Ca^2+ channel activity is expressed as % inhibition of KCl-induced intracellular Ca^2+ signaling in non-NGF treated PC12 cells loaded with fura-2.

[2] = tested on: withdrawal seizures in alcohol-dependent mice; experiment: Predicted anti-seizure activity; format: in vivo, mouse; set-up: key: la = long-acting; The ++ farnesol activity was arbitrary; settings: duration flag in brackets
microsomal FolDH = experiment: Recognition by microsomal FolDH; format: in vitro ADME
ADH = experiment: Metabolism / substrate recognition by ADH; format: in vitro ADME
[3] = target: T2, smooth muscle voltage-gated, L-type (Cav1.2 or α1C subunit) Ca^2+ channels (Mus musculus, UniProt Q01815); experiment: KCl-induced contraction in isolated arteries; settings: FIG. 5 / FIG. 6 (25 μM)
T2 construct: KCl-induced contraction in isolated arteries; from tissue; host or cells: mouse mesenteric arteries
Protocol: Contractions obtained after 30 min. incubation with the test compounds (left portion of graph), and after a 60-min. wash-out (right portion of graph).
as §1

[4] = target: T3, voltage-gated L-type Ca^2+ channels (Homo sapiens, UniProt Q13936); settings: cited from earlier work
T3 construct: host or cells: arteries / vascular smooth muscle cells

Row | Structure (SMILES) | activity on neuronal L-type Ca^2+ channels compared with all-trans farnesol [1] | activity on KCl-induced arterial contraction [3] | other results
1 | C=CC(C)(O)CCC=C(C)CCC=C(C)C (mixture of isomers) [Nerolidol, (E)-3,7,11-trimethyldodeca-1,6,10-trien-3-ol] | – | – | block of KCl-induced Ca^2+ signaling ([1]; PC12 cells in culture, n=3/group, FIG. 3): ~85%; Predicted anti-seizure activity: long-acting (la) [2]: la; recognition by microsomal FolDH (microsomal FolDH): not recognized by microsomal FolDH; substrate for ADH (ADH): not a substrate for ADH
2 | CC(C)=CCCC(C)=CCCC(C)=CC=O [FCHO, all-trans farnesal, reference compound] | significantly less activity than FOH | – | –
3 | CC(C)=CCCC(C)=CCCC(C)=CCBr [Farnesyl bromide] | – | did not showed significant activity | –
4 | CC(C)=CCC/C(C)=C/CC/C(=C\CO)C(F)(F)F [Trifluorofarnesol, (2E,6E)-,7,11-dimethyl-3-(trifluoromethyl)dodeca-2,6,10-trien-1-ol] | – | – | Predicted anti-seizure activity: long-acting (la) [2]: la
5 | CC(C)=CCC/C(C)=C/CC/C(C)=C/C(=O)O [farnesoic acid, all-trans farnesoic acid, reference compound] | substantially inactive | – | –
6 | CC(=O)OCC=C(C)CCC=C(C)CCC=C(C)C [farnesyl acetate] | – | did not showed significant activity | –
7 | COCC=C(C)CCC=C(C)CCC=C(C)C [farnesyl methyl ether] | – | did not showed significant activity | –
8 | CC(C)=CCC/C(C)=C/CC/C(C)=C/COP(=O)(O)OP(=O)(O)O [farnesyl-PP, farnesyl pyrophosphate, reference compound] | substantially inactive | – | –
9 | CC(=O)CCC=C(C)CCC=C(C)CCC=C(C)C [farnesylacetone] | – | did not showed significant activity | –
10 | CC(C)=CCC/C(C)=C/CO [geraniol, reference compound] | – | – | activity on Ca^2+ channels / smooth muscle L-type channels (literature / prior studies) [4]: inactive
11 | CC(C)=CCC/C(C)=C/CC/C(C)=C/CC/C(C)=C/CO [geranylgeraniol, reference compound] | – | – | activity on Ca^2+ channels / smooth muscle L-type channels (literature / prior studies) [4]: inactive
12 | CC(C)=CCC/C(C)=C/CC/C(C)=C\CO [“Cis” farnesol, (2Z,6E)-3,7,11-trimethyldodeca-2,6,10-trien-1-ol] | significantly more active | significantly more active | catalytic efficiency of ADH, lower than toward all-trans farnesol (ADH): approximately 10 fold
